The target of experiment [1] is PIM (PIM-1, PIM-2, and/or PIM-3). Nature of the experiment: PIM-1, PIM-2 and PIM-3 inhibition, biochemical chemiluminescence assays (Kinase Glo, IC50 determination). Particulars: Table 1 activity class; PIM refers to PIM-1, PIM-2, and/or PIM-3; read-out: PIM IC50 (Activity B). (In general: Kinase-Glo measures the ATP left after a reaction by luminescence.)
The target in another experiment is CDC7 (Homo sapiens, UniProt O00311). Nature of the experiment: CDC7 inhibition, biochemical chemiluminescence assay (Kinase Glo, IC50 determination). In outline:
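CDC7 enzyme preincubated with compound 10 min at ambient temperature, then ATP mix in Tris Base added; reaction 90 min at 24-27 °C. Remaining ATP quantified by Kinase Glo luminescence to give IC50.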

A further experiment addresses CK2 (Homo sapiens, UniProt P68400). Nature of the experiment: CK2 inhibition, biochemical chemiluminescence holoenzyme assay (Kinase Glo, IC50 determination). The note with it: Table 1 activity class; symbol given only if active; read-out: CK2 IC50 (Activity C). In outline: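 Holoenzyme CK2 assay; compounds pre-incubated with substrate and enzyme, then reacted 150 min at 24-27° C. Remaining ATP measured as luminescence with Kinase Glo, and IC50 derived from the signal.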

Setting [2] is: Table 1 activity class, symbol given only if active, read-out: CDC7 IC50 (Activity A).
[3] abbreviates: compounds in Table 1, read-out: CDC7 IC50 value.

Where two headings read alike, the source gives them in different places.

CK2, sequence (P68400 whole entry): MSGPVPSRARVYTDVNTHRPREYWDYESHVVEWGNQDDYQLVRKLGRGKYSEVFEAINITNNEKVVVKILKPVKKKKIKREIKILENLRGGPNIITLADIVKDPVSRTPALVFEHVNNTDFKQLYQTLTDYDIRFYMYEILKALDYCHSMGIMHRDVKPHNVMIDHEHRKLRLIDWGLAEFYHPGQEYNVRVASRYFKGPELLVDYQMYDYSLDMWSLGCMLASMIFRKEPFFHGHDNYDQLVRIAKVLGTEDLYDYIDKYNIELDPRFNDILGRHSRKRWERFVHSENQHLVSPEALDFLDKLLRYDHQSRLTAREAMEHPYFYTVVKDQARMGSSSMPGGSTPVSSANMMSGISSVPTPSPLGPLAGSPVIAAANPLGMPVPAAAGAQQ
CK2, sequence (P67870 whole entry partner): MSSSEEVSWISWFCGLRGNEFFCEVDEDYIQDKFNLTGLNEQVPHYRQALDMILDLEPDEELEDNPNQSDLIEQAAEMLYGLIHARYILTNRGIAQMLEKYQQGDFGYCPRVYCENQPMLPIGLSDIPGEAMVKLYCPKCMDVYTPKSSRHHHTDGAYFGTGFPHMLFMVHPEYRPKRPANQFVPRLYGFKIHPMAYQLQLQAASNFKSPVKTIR
CDC7, sequence (O00311 whole entry): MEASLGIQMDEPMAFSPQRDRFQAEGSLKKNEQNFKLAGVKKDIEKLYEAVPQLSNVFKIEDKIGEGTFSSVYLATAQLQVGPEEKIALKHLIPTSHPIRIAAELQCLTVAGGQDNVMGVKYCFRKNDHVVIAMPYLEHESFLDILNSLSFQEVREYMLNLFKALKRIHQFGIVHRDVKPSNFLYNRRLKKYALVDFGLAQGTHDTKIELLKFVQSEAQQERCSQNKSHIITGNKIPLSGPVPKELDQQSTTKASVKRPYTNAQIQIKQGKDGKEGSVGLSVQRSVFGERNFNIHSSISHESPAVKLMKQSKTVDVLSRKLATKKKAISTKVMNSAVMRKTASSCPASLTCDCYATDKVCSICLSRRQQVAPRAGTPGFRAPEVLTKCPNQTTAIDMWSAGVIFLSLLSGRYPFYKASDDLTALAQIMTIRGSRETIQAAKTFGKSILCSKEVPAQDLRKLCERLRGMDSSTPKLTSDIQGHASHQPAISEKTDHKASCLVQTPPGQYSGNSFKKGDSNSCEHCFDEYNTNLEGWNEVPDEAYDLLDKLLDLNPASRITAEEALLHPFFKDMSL
CDC7, sequence (Q9UBU7 whole entry partner): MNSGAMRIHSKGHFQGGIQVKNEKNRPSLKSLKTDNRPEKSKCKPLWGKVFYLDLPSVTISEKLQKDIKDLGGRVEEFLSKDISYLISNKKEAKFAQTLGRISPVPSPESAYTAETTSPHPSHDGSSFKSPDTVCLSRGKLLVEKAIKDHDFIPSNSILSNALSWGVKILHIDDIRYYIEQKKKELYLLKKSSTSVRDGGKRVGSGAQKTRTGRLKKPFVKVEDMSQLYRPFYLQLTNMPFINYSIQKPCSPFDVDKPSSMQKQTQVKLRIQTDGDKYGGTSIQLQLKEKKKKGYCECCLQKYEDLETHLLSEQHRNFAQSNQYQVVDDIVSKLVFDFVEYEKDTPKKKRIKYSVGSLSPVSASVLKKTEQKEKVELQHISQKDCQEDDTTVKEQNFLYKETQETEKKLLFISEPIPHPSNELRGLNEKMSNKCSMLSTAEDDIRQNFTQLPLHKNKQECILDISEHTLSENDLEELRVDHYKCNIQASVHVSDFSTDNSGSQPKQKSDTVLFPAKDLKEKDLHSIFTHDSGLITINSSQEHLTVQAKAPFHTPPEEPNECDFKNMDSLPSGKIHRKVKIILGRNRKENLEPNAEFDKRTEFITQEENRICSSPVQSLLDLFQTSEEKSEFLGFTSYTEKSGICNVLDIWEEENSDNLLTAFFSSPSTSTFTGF

As usually defined, the IC50 is the midpoint of a concentration-inhibition curve. `NCc1cccc(-c2nc3c(oc4ccc(Br)cc43)c(=O)[nH]2)c1` [Compound 302, 2-[3-(Aminomethyl)phenyl]-8-bromo[1]benzofuro[3,2-d]pyrimidin-4(3H)-one]: the IC50 (in experiment [1]; on CDC7 (setting [2]); at CK2) was < 10 µM throughout.
In the case of `CCC(CC)NCc1nc2c(oc3ccc(Br)cc32)c(=O)[nH]1` [Compound 502, 8-bromo-2-{[(1-ethylpropyl)amino]methyl}[1]benzofuro[3,2-d]pyrimidin-4(3H)-one], the IC50 in experiment [1] was < 10 µM; on CDC7 (setting [2]), < 10 µM; on CDC7 (setting [3]), < 0.1 µM; on CK2, < 10 µM.
`O=C(O)C1CN(Cc2nc3c(oc4ccc(Br)cc43)c(=O)[nH]2)C1` [Compound 370, 1-[(8-bromo-4-oxo-3,4-dihydro[1]benzofuro[3,2-d]pyrimidin-2-yl)methyl]azetidine-3-carboxylic acid]: the IC50 (in experiment [1]; at CDC7 (setting [2]); on CK2) was < 10 µM throughout.
With `COCC(=O)Nc1ccc(-c2nc3c(oc4ccc(Br)cc43)c(=O)[nH]2)c(Cl)c1` [Compound 319, N-[4-(8-bromo-4-oxo-3,4-dihydro[1]benzofuro[3,2-d]pyrimidin-2-yl)-3-chlorophenyl]-2-(methyloxy)acetamide], the IC50 (in experiment [1]; on CDC7 (setting [2]); on CK2) was < 10 µM each time.
`O=c1[nH]c(CN2CCNCC2)nc2c1oc1ccc(Br)cc12` [Compound 141, 8-bromo-2-(piperazin-1-ylmethyl)[1]benzofuro[3,2-d]pyrimidin-4(3H)-one]: the IC50 (in experiment [1]; on CDC7 (setting [2]); at CK2) was < 10 µM in each case.
For the molecule `O=C(CC1CCNCC1)Nc1ccc(-c2nc3c(oc4ccc(Br)cc43)c(=O)[nH]2)c(Cl)c1` [Compound 217, N-[4-(8-bromo-4-oxo-3,4-dihydro[1]benzofuro[3,2-d]pyrimidin-2-yl)-3-chlorophenyl]-2-piperidin-4-ylacetamide], the IC50 (in experiment [1]; at CDC7 (setting [2]); at CK2) was < 10 µM each time.
Consider `O=C(O)C1(O)CCN(Cc2nc3c(oc4ccc(Br)cc43)c(=O)[nH]2)C1` (centres unmarked) [Compound 368, 1-[(8-bromo-4-oxo-3,4-dihydro[1]benzofuro[3,2-d]pyrimidin-2-yl)methyl]-3-hydroxypyrrolidine-3-carboxylic acid], for which the IC50 in experiment [1] is < 10 µM; on CDC7 (setting [2]) it was < 10 µM; on CDC7 (setting [3]), < 0.1 µM; on CK2, < 10 µM.
For `CO[C@H]1CCN(Cc2nc3c(oc4ccc(Br)cc43)c(=O)[nH]2)C1` [Compound 369, 8-bromo-2-{[(3S)-3-(methyloxy)pyrrolidin-1-yl]methyl}[1]benzofuro[3,2-d]pyrimidin-4(3H)-one], the IC50 in experiment [1] is < 10 µM; at CDC7 (setting [2]), < 10 µM; at CDC7 (setting [3]) it was < 0.1 µM; on CK2, < 10 µM.
Consider `CN(C)CCC(=O)Nc1ccc(-c2nc3c(oc4ccc(Br)cc43)c(=O)[nH]2)c(Cl)c1` [Compound 135, N-[4-(8-bromo-4-oxo-3,4-dihydro[1]benzofuro[3,2-d]pyrimidin-2-yl)-3-chlorophenyl]-N′3′,N′3′-dimethyl-beta-alaninamide], for which the IC50 (in experiment [1]; at CDC7 (setting [2]); on CK2) was < 10 µM in each case.
As to `CC(C)(C)NCc1nc2c(oc3ccc(Br)cc32)c(=O)[nH]1` [Compound 503, 8-bromo-2-{[(1,1-dimethylethyl)amino]methyl}[1]benzofuro[3,2-d]pyrimidin-4(3H)-one], the IC50 was < 10 µM in experiment [1], < 10 µM at CDC7 (setting [2]), < 0.1 µM on CDC7 (setting [3]) and < 10 µM at CK2.
On to `C[C@H](N)c1nc2c(oc3ccc(Cl)cc32)c(=O)[nH]1` [Compound 533, 2-[(1S)-1-aminoethyl]-8-chloro[1]benzofuro[3,2-d]pyrimidin-4(3H)-one], for which the IC50 in experiment [1] was < 10 µM; on CDC7 (setting [2]) it was < 10 µM; on CDC7 (setting [3]), < 0.1 µM; at CK2, < 10 µM.
In the case of `O=c1[nH]c(C2CCNCC2)nc2c1oc1ccc(Br)cc12` [Compound 157, 8-bromo-2-piperidin-4-yl[1]benzofuro[3,2-d]pyrimidin-4(3H)-one], the IC50 in experiment [1] is < 10 µM; on CDC7 (setting [2]), < 10 µM; at CDC7 (setting [3]) it was < 0.1 µM; at CK2, < 10 µM.
Turning to `O=C(Nc1ccc(-c2nc3c(oc4ccc(Br)cc43)c(=O)[nH]2)c(Cl)c1)c1cnccn1` [Compound 323, N-[4-(8-bromo-4-oxo-3,4-dihydro[1]benzofuro[3,2-d]pyrimidin-2-yl)-3-chlorophenyl]pyrazine-2-carboxamide], the IC50 (in experiment [1]; on CDC7 (setting [2]); at CK2) was < 10 µM in each case.
Regarding `Nc1ccc(C(=O)Nc2ccc(-c3nc4c(oc5ccc(Br)cc54)c(=O)[nH]3)c(Cl)c2)cn1` [Compound 439, 6-amino-N-[4-(8-bromo-4-oxo-3,4-dihydro[1]benzofuro[3,2-d]pyrimidin-2-yl)-3-chlorophenyl]pyridine-3-carboxamide], the IC50 (in experiment [1]; at CDC7 (setting [2]); on CK2) was < 10 µM each time.
In the case of `NC1(c2nc3c(oc4ccc(Br)cc43)c(=O)[nH]2)CCC1` [Compound 544, 2-(1-aminocyclobutyl)-8-bromo[1]benzofuro[3,2-d]pyrimidin-4(3H)-one], the IC50 in experiment [1] is < 10 µM; on CDC7 (setting [2]), < 10 µM; on CDC7 (setting [3]), < 0.1 µM; on CK2, < 10 µM.
Turning to `CNc1cc(-c2nc3c(oc4ccc(Br)cc43)c(=O)[nH]2)c(Cl)cn1` [Compound 265, 8-bromo-2-[5-chloro-2-(methylamino)pyridin-4-yl][1]benzofuro[3,2-d]pyrimidin-4(3H)-one], the IC50 (in experiment [1]; on CDC7 (setting [2]); at CK2) was < 10 µM each time.
Turning to `Cc1cc2c(cc1[N+](=O)O)oc1c(=O)[nH]c(CN3CC[C@H](O)C3)nc12` [Compound 433, hydroxy(2-{[(3S)-3-hydroxypyrrolidin-1-yl]methyl}-8-methyl-4-oxo-3,4-dihydro[1]benzofuro[3,2-d]pyrimidin-7-yl)oxoammonium], the IC50 (in experiment [1]; on CDC7 (setting [2]); at CK2) was < 10 µM in each case.
On to `NC1CCCC(c2nc3c(oc4ccc(Br)cc43)c(=O)[nH]2)C1` (centres unmarked) [Compound 380, 2-(3-aminocyclohexyl)-8-bromo[1]benzofuro[3,2-d]pyrimidin-4(3H)-one], for which the IC50 was < 10 µM in experiment [1], < 10 µM at CDC7 (setting [2]), < 0.1 µM at CDC7 (setting [3]) and < 10 µM on CK2.
Take `C[Si](C)(C)C#Cc1ccc2oc3c(=O)[nH]c(CN4CC[C@H](O)C4)nc3c2c1` [Compound 459, 2-{[(3S)-3-hydroxypyrrolidin-1-yl]methyl}-8-[(trimethylsilyl)ethynyl][1]benzofuro[3,2-d]pyrimidin-4(3H)-one]: the IC50 in experiment [1] was < 10 µM; against CDC7 (CDC7 IC50 (Activity A), Table 1 activity class, symbol given only if active), < 10 µM; on CK2 it was < 10 µM.
As to `O=c1[nH]c(CN2CCC[C@H]2CO)nc2c1oc1ccc(Br)cc12` [Compound 366, 8-bromo-2-{[(2S)-2-(hydroxymethyl)pyrrolidin-1-yl]methyl}[1]benzofuro[3,2-d]pyrimidin-4(3H)-one], the IC50 is < 10 µM in experiment [1], < 10 µM on CDC7 (setting [2]), < 0.1 µM on CDC7 (setting [3]) and < 10 µM on CK2.
As to `C#Cc1ccc2oc3c(=O)[nH]c(CN4CC[C@H](O)C4)nc3c2c1` [Compound 458, 8-ethynyl-2-{[(3S)-3-hydroxypyrrolidin-1-yl]methyl}[1]benzofuro[3,2-d]pyrimidin-4(3H)-one], the IC50 in experiment [1] was < 10 µM; at CDC7 (setting [2]), < 10 µM; at CDC7 (setting [3]), < 0.1 µM; at CK2 it was < 10 µM.
Regarding `O=c1[nH]c(CN2CCC3(CCNCC3)CC2)nc2c1oc1ccc(Br)cc12` [Compound 311, 8-bromo-2-(3,9-diazaspiro[5.5]undec-3-ylmethyl)[1]benzofuro[3,2-d]pyrimidin-4(3H)-one], the IC50 (in experiment [1]; on CDC7 (setting [2]); at CK2) was < 10 µM each time.
Consider `O=c1[nH]c(CN2CC3CCC2[C@H]3O)nc2c1oc1ccc(Br)cc12` (stereo partly drawn) [Compound 413, 8-bromo-2-{[(7S)-7-hydroxy-2-azabicyclo[2.2.1]hept-2-yl]methyl}[1]benzofuro[3,2-d]pyrimidin-4(3H)-one], for which the IC50 in experiment [1] was < 10 µM; at CDC7 (setting [2]) it was < 10 µM; on CDC7 (setting [3]), < 0.1 µM; on CK2, < 10 µM.
`O=C(Nc1ccc(-c2nc3c(oc4ccc(Br)cc43)c(=O)[nH]2)c(Cl)c1)C1CCNC1` (centres unmarked) [Compound 178, N-[4-(8-bromo-4-oxo-3,4-dihydro[1]benzofuro[3,2-d]pyrimidin-2-yl)-3-chlorophenyl]pyrrolidine-3-carboxamide]: the IC50 (in experiment [1]; at CDC7 (setting [2]); on CK2) was < 10 µM each time.
Take `O=C(O)c1ccc(C(=O)Nc2ccc(-c3nc4c(oc5ccc(Br)cc54)c(=O)[nH]3)c(Cl)c2)nc1` [Compound 347, 6-({[4-(8-bromo-4-oxo-3,4-dihydro[1]benzofuro[3,2-d]pyrimidin-2-yl)-3-chlorophenyl]amino}carbonyl)pyridine-3-carboxylic acid]: the IC50 (in experiment [1]; on CDC7 (setting [2]); at CK2) was < 10 µM throughout.
